# Measured values taken from US12551537B2, “Methods and compositions for the treatment and prevention of type 1 diabetes” (Dr. Mary Morris & Associates, LLC, priority 2019, dated 2026).
# Legend:
# [1] = system: islet cell autoantibody levels; assay: Autoantibody titer in NOD mice (ELISA); type: in vivo, mouse; settings: sublingual 87 μg once per day up to 30 weeks of age, compared to untreated controls
# Description: Autoantibody titer assay. Commercially available ELISA assays are employed for detecting the presence of anti-insulin antibodies in serum samples collected from subjects.
# (§1) Five-week old female NOD mice are randomly assigned to three groups as described in Example 1: (1) control group (oil only); (2) insulin-related peptide treatment (Humulin®) started at six weeks of age; or (3) insulin-related peptide treatment (Humulin®) started at ten weeks of age. Mice in the treatment groups (2) and (3) are sublingually administered 87 μg of humulin once per day up to 30 weeks of age. The subjects are assessed for baseline levels of autoantibodies at week 6. Thereafter, autoantibody titer measurements are taken once every other week beginning at week 15 up to 30 weeks of age.
# [2] = system: non-obese diabetic (NOD) mice; assay: Onset of hyperglycemia / Type 1 diabetes in NOD mice with sublingual treatment; type: in vivo, mouse; settings: for Median Survival (time to Type 1 diabetes onset): female NOD mice, sublingual 87 μg once per day, diabetic = three consecutive blood glucose readings above 300 mg/dL, control 21 weeks; for Gehan-Breslow-Wilcoxon test: Are the survival curves significantly different? / Log-rank (Mantel-Cox) test: Are the survival curves significantly different?: vs control
# Description: Sublingual formulation. A commercial high dose Humulin® solution (Humulin® R U-500) containing 500 units of insulin per mL is mixed with an additional equal volume (1:1 (vol:vol)) 100% glycerin. Each dose contains 10 μL of the Humulin®-glycerin solution, which contains 2.5 units (approximately 87 micrograms) of insulin in a solution having a final concentration of 52 vol. % glycerin.
# NOD mice. Non-obese diabetic (NOD) mice, as described by Makino (Adv. Immunol. 51:285-322 (1992)), are used in the studies described herein. NOD mice provide an animal model for the spontaneous development of Type 1 diabetes. NOD mice develop insulitis as a result of leukocyte infiltration into the pancreatic islet, which in turn leads to the destruction of pancreatic islets and a Type 1 diabetic phenotype.
# Five-week old female NOD mice were randomly assigned to three groups: (1) control group (1:1 glycerin/phosphate buffered saline (PBS)); (2) insulin-related peptide treatment (Humulin®) started at six weeks of age; or (3) insulin-related peptide treatment (Humulin®) started at ten weeks of age. Mice in the treatment groups (2) and (3) were sublingually administered 87 μg of Humulin® (10 μL of solution) once per day up to 30 weeks of age. Blood glucose measurements were taken once per week up to 20 weeks of age, and then twice per week thereafter. Mice were classified as diabetic after three consecutive blood glucose readings above 300 mg/dL (hyperglycemic).
# [3] = system: serum C-peptide; assay: Serum C-peptide levels in NOD mice (mouse C-peptide ELISA); type: in vivo; settings: sublingual 87 μg once per day up to 30 weeks of age, compared to untreated control NOD mice
# Description: Serum C-peptide assay. The mouse C-peptide ELISA (ALPCO), which quantifies C-peptide protein products of mouse I and mouse II proinsulin genes, is used. Briefly, serum is collected by inserting a needle into the submandibular vein and collecting ˜0.2 mL of blood. The blood is centrifuged for 30 minutes at 17,000 rpm in a refrigerated centrifuge, and serum is collected and stored −80° C.
# as §1, with “Humulin®” for “humulin”, “Baseline C-peptide measurements” for “The subjects”, “taken from serum drawn” for “assessed for baseline levels of autoantibodies”, “C-peptide” for “autoantibody titer”, “from serum drawn 1 time per 2 weeks” for “once every other week”, “20” for “15”
# [4] = FIG. 1A, treatment group 2, sublingual, started at six weeks of age, compared to control group
# [5] = FIG. 1A, treatment started at 6 weeks of age
# [6] = FIG. 1B, treatment started at 10 weeks of age
substance,measurement,setting,value
"Humulin: commercial recombinant human insulin solution (Humulin R U-500, 500 units/mL) mixed 1:1 with 100% glycerin for sublingual dosing","antigenic response (e.g., islet cell autoantibody levels)",[1],attenuated antigenic response
same,Median Survival (time to Type 1 diabetes onset),"[2]; FIG. 1A, started at 6 weeks of age up to 30 weeks",27 weeks
same,incidence (% T1D Onset) of Type 1 diabetes,[2]; [4],significantly reduced
same,onset time (weeks) of Type 1 diabetes,[2]; [4],significantly reduced
same,Ratio of median survival (control vs Humulin),[2]; [5],0.778
same,Reciprocal of ratio of median survival,[2]; [5],1.29
same,Gehan-Breslow-Wilcoxon test: Are the survival curves significantly different?,[2]; [5],Yes
same,Log-rank (Mantel-Cox) test: Are the survival curves significantly different?,[2]; [5],Yes
same,Median Survival (time to Type 1 diabetes onset),"[2]; FIG. 1B, started at 10 weeks of age up to 30 weeks",24 weeks
same,Ratio of median survival (control vs Humulin),[2]; [6],0.8750
same,Reciprocal of ratio of median survival,[2]; [6],1.14
same,Gehan-Breslow-Wilcoxon test: Are the survival curves significantly different?,[2]; [6],No
same,Log-rank (Mantel-Cox) test: Are the survival curves significantly different?,[2]; [6],No
same,serum C-peptide levels,[3],maintenance or enhanced serum C-peptide levels
